Patent US9750759B2, “Antitumoral compounds” (priority 2008, dated 2017)
Where two headings read alike, the source gives them in different places.

Key:
Experiment in all cases: cells
Type in all cases: cell-based
A549 = conditions: Homo sapiens; for IC (total growth inhibition): read-out: TGI; for GI50: concentration that produces 50% growth inhibition
From the text: (§1) The aim of this assay is to evaluate the in vitro cytostatic (ability to delay or arrest tumor cell growth) or cytotoxic (ability to kill tumor cells) activity of the samples being tested.
(§2) A colorimetric type of assay, using sulforhodamine B (SRB) reaction has been adapted for a quantitative measurement of cell growth and viability (following the technique described by Skehan P et al. J. Natl. Cancer Inst. 1990, 82, 1107-1112).
(§3) This form of assay employs SBS-standard 96-well cell culture microplates (Faircloth et al. Methods in cell science, 1988, 11(4), 201-205; Mosmann et al, Journal of Immunological. Methods, 1983, 65(1-2), 55-63). All the cell lines used in this study, derived from different types of human cancer, were obtained from the American Type Culture Collection (ATCC).
(§4) Cells were maintained in Dulbecco's Modified Eagle Medium (DMEM) supplemented with 10% Fetal Bovine Serum (FBS), 2 mM L-glutamine, 100 U/mL penicillin and 100 U/mL streptomycin at 37° C., 5% CO2 and 98% humidity. For the experiments, cells were harvested from subconfluent cultures using trypsinization and resuspended in fresh medium before counting and plating.
(§5) Cells were seeded in 96 well microtiter plates at 5×10^3 cells per well in aliquots of 150 μL, and allowed to attach to the plate surface for 18 hours in drug free medium. One control (untreated) plate of each cell line was fixed (as described below) and used for time zero reference value. Afterwards, test samples were added to the cultures in ten serial dilutions, in aliquots of 50 μL, ranging from 10 to 0.00262 μg/mL. After 48 hours exposure, the antitumor effect was estimated by the SRB method: Briefly, cells were washed twice with PBS, fixed for 15 min in 1% glutaraldehyde solution, rinsed twice in PBS, and stained in 0.4% SRB solution for 30 min at room temperature. Cells were then rinsed several times with 1% acetic acid solution and air-dried. SRB was then extracted in 10 mM trizma base solution and the absorbance measured in an automated spectrophotometric plate reader at 490 nm. Cell survival was expressed as percentage of control cell growth. The final effect of the sample being tested was estimated by applying the NCI algorithm (Boyd M R and Paull K D. Drug Dev. Res. 1995, 34, 91-104).
(§6) Using the mean±SD of triplicate cultures, a dose-response curve was automatically generated using nonlinear regression analysis. Three reference parameters were calculated (NCI algorithm) by automatic interpolation: GI50=concentration that produces 50% growth inhibition; TGI=total growth inhibition (cytostatic effect) and LC50=concentration that produces 50% net cell killing (cytotoxic effect).

MDA-MB-231 = conditions: Homo sapiens; for GI50: concentration that produces 50% growth inhibition; for IC (total growth inhibition): read-out: TGI
From the text: as §1, §2, §3, §4, §5, §6

HT29 = conditions: Homo sapiens; for GI50: concentration that produces 50% growth inhibition; for IC (total growth inhibition): total growth inhibition (cytostatic effect), read-out: TGI
From the text: as §1, §2, §3, §4, §5, §6

[1] = MDA-MB-231, 48 h, read-out: LC50
[2] = MDA-MB-231, 48 hours exposure, total growth inhibition (cytostatic effect)
[3] = A549, 48 hours exposure, concentration that produces 50% net cell killing, read-out: LC50 (the source's name)
[4] = A549, 48 hours exposure, total growth inhibition (cytostatic effect)
[5] = MDA-MB-231, 48 hours exposure, concentration that produces 50% net cell killing, read-out: LC50 (the source's name)
[6] = HT-29, HT29, 48 hours exposure, concentration that produces 50% net cell killing, read-out: LC50 (the source's name)

| SMILES | CC50 (A549; A549, 48 h, read-out: LC50) | IC (total growth inhibition) (A549; A549, 48 h) | GI50 (A549; A549, 48 hours exposure) | CC50 (MDA-MB-231; [1]) | GI50 (MDA-MB-231; MDA-MB-231, 48 hours exposure) | IC (total growth inhibition) (MDA-MB-231; [2]) | CC50 (HT29; HT-29, 48 h, read-out: LC50) | GI50 (HT29; HT-29, HT29, 48 hours exposure) | IC (total growth inhibition) (HT29; HT-29, HT29, 48 hours exposure) | CC50 (A549; [3]) | IC (total growth inhibition) (A549; [4]) | CC50 (MDA-MB-231; [5]) | CC50 (HT29; [6]) | IC (total growth inhibition) (MDA-MB-231; MDA-MB-231, 48 h) |
| --- | --- | --- | --- | --- | --- | --- | --- | --- | --- | --- | --- | --- | --- | --- |
| COC1=CC[C@@H]([C@@H](C)/C=C\C=C/C(=O)N[C@H](C(=O)N/C=C\C[C@H](C/C=C(\C)Cl)OC(N)=O)C(C)(C)C)OC1=O [Compound 69] | > 17700 nM | > 17.7 µM | 230 nM | 8130 nM | 336 nM | 1.63 µM | > 17700 nM | 173 nM | 0.424 µM |  |  |  |  |  |
| CC#CC[C@@H](C/C=C\NC(=O)[C@@H](NC(=O)\C=C/C=C\C(C)=C\[C@H](C)[C@@H]1CC=C(OC)C(=O)O1)C(C)(C)C)O[Si](c1ccccc1)(c1ccccc1)C(C)(C)C [Compound 70] |  |  | 2090 nM |  | 1700 nM | 2.48 µM |  | 1960 nM | 2.74 µM | 3270 nM | 2.61 µM | 3530 nM | 4050 nM |  |
| CC#CC[C@H](O)C/C=C\NC(=O)[C@@H](NC(=O)\C=C/C=C\C(C)=C\[C@H](C)[C@@H]1CC=C(OC)C(=O)O1)C(C)(C)C [Compound 71] | 8540 nM |  | 266 nM | > 19000 nM | 209 nM | 2.85 µM | > 19000 nM | 58.9 nM | 0.175 µM |  | 1.84 µM |  |  |  |
| CC#CC[C@@H](C/C=C\NC(=O)[C@@H](NC(=O)\C=C/C=C\C(C)=C\[C@H](C)[C@@H]1CC=C(OC)C(=O)O1)C(C)(C)C)OC(N)=O [Compound 72] | > 176 nM |  | 0.176 nM | > 176 nM | 0.246 nM | 0.00193 µM | > 176 nM | 0.0579 nM | 0.000125 µM |  | 0.00281 µM |  |  |  |
| COC1=CC[C@@H]([C@@H](C)/C=C(C)/C=C\C#CC(=O)NC(C(=O)N/C=C\C[C@H](C/C=C(\C)Cl)O[Si](c2ccccc2)(c2ccccc2)C(C)(C)C)C(C)(C)C)OC1=O (stereo partly drawn) [Compound 78] |  |  | > 12500 nM |  | > 12500 nM | > 12.5 µM |  | > 12500 nM | > 12.5 µM | > 12500 nM | > 12.5 µM | > 12500 nM | > 12500 nM |  |
| C/C=C\C[C@@H](C/C=C\NC(=O)[C@@H](NC(=O)C#C/C=C\C(C)=C\[C@H](C)[C@@H]1CC=C(OC)C(=O)O1)C(C)(C)C)O[Si](c1ccccc1)(c1ccccc1)C(C)(C)C [Compound 79] |  |  | > 13100 nM |  | > 13100 nM | > 13.1 µM |  | 5100 nM | > 13.1 µM | > 13100 nM | > 13.1 µM | > 13100 nM | > 13100 nM |  |
| C/C=C\C[C@H](O)C/C=C\NC(=O)[C@@H](NC(=O)C#C/C=C\C(C)=C\[C@H](C)[C@@H]1CC=C(OC)C(=O)O1)C(C)(C)C [Compound 80] | > 19000 nM |  | 93 nM | > 19000 nM | 152 nM | > 19 µM | > 19000 nM | 49.4 nM | 0.0949 µM |  | 0.304 µM |  |  |  |
| C/C=C\C[C@@H](C/C=C\NC(=O)[C@@H](NC(=O)C#C/C=C\C(C)=C\[C@H](C)[C@@H]1CC=C(OC)C(=O)O1)C(C)(C)C)OC(N)=O [Compound 81] | > 17600 nM |  | 2280 nM | > 17600 nM | 2980 nM |  | > 17600 nM | 1260 nM | 2.98 µM |  | 8.43 µM |  |  | > 17.6 µM |
| COC1=CC[C@@H]([C@@H](C)/C=C(C)/C=C\C=C/C(=O)N[C@H](C(=O)N/C=C\C[C@H](C/C=C(\C)Cl)OC(N)=O)C(C)(C)C)O[C@H]1O [Compound 85] | > 16.4 nM |  | 0.723 nM | > 16.4 nM | 1.02 nM | 0.00181 µM | 1.97 nM | 0.345 nM | 0.000625 µM |  | 0.00164 µM |  |  |  |
